Data reported in US20230108049A1, “ORAL FAST-DISPERSING DOSAGE FORM OF RIMEGEPANT” (BIOHAVEN PHARMACEUTICAL HOLDING COMPANY LTD., priority 2020, published 2023).

Experiments:
[1] = Excretion after oral [14C]-rimegepant; format: in vivo, human; settings: oral, healthy male subjects
From the text: Following oral administration of [^14C]-rimegepant to healthy male subjects, 78% of the total radioactivity was recovered in feces and 24% in urine. Unchanged rimegepant is the major single component in excreted feces (42%) and urine (51%).

Solubility in water = format: physicochemical; settings: white to off-white crystalline solid

SMILES | total radioactivity recovered in feces [1] | total radioactivity recovered in urine [1] | solubility in water (Solubility in water)
N[C@@H]1c2cccnc2[C@H](OC(=O)N2CCC(n3c(=O)[nH]c4ncccc43)CC2)CC[C@H]1c1cccc(F)c1F [[^14C]-rimegepant] | 78% | 24% | 
N[C@@H]1c2cccnc2[C@H](OC(=O)N2CCC(n3c(=O)[nH]c4ncccc43)CC2)CC[C@H]1c1cccc(F)c1F [rimegepant hemisulfate, (5S,6S,9R)-5-amino-6-(2,3-difluorophenyl)-6,7,8,9-tetrahydro-5H-cyclohepta[b]pyridin-9-yl 4-(2-oxo-2,3-dihydro-1H-imidazo[4,5-b]pyridin-1-yl)-1-piperidinecarboxylate hemisulfate sesquihydrate] |  |  | slightly soluble in water
